In US8163661B2, “Luminescence measurement system” (Olympus Corporation, priority 2007, dated 2012):

How the values were obtained:
[1] = system: HeLa cell (pGL3 transfected); details: pGL3 transfected to HeLa cell, measured with time
Method: Specifically, in the experiments conducted by the present inventor, pGL3 was transfected to HeLa cell and, by making use of FCCP acting as an uncoupler, the production of ATP in mitochondria was suspended and then the luminescence intensity on this occasion was measured with time by making use of LUMINOVIEW (LV100) (trade name).

[2] = system: cytoplasmic ATP; details: 30 minutes after treatment with FCCP; cited from earlier work

## N#CC(C#N)=NNc1ccc(OC(F)(F)F)cc1 [FCCP, carbonyl cyanide p-(trifluoromethoxy) phenylhydrazone]
[1]
  luminescence intensity after FCCP: not attenuated
[2]
  concentration of cytoplasmic ATP relative to steady state: about 50 % of that of steady state
